Holding throughout (assay type): biochemical
For assay [1], the target named is T1, human vanin-1 (Homo sapiens (Human), UniProt O95497). As to the kind of experiment: Human Vanin-1 Enzyme Assay 2. The following applies: 1 nM human vanin-1, 10 uM substrate, 45 min. The protocol:
Human Vanin-1 Enzyme Assay 2.
The in vitro assay measures enzymatic cleavage of the fluorescently-labeled vanin substrate, pantetheine 7-amino-4-trifluoromethylcoumarin, by human vanin-1.
The vanin-1 protein was prepared in-house from a construct expressing the extracellular domain of human vanin-1 (GenBank ID NM_004666) preceded N-terminally by the honey bee melittin signal peptide, a GSG linker sequence, a His6X tag and a FLAG tag. The secreted, soluble enzyme was purified from the conditioned medium from a CHO cell line stably expressing the resulting protein. Enzyme purification was performed through sequential Ni NTA and size-exclusion chromatography steps.
On the day of the assay, dose response plates were prepared by diluting the inhibitors in DMSO at compound concentration 100-fold the final in-assay concentration. Concentration series were prepared by serially diluting in DMSO in a half-log series for a total of 11 data points. Intermediate compound plates containing compound in 10% DMSO were then created by diluting the compounds 10-fold in assay buffer consisting of 50 mM Tris-HCl pH=8.0, 50 mM KCl, 0.005% Brij-35 and 1.5 mM cysteamine. To begin the assay 3 μL were transferred from the intermediate compound plate to the assay plate.
A working solution of human vanin-1 was prepared by diluting the enzyme stock to 1.25 nM in assay buffer. Next, 24 μL of the vanin-1 working solution were transferred to the assay plate. The enzyme reaction was then initiated by the addition of 3 μL of 100 μM pantetheine 7-amino-4-trifluoromethylcoumarin prepared in assay buffer. The final concentrations in the assay were 1 nM human vanin-1 and 10 uM substrate. The final concentration of DMSO was 1%. The assay plates were incubated for 45 minutes and before they were read on a Spectramax M5 using a 405 nm excitation wavelength and a 505 nm emission wavelength for detection.

The target of assay [2] is T1, human vanin-1. As to the kind of experiment: Human Vanin-1 Enzyme Assay 3. The conditions noted are these: 2 nM human vanin-1, 10 uM substrate, 15 min. A digest of the protocol: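 His/FLAG-tagged extracellular domain of human vanin-1 from CHO cells, used at 2 nM final, with 10 uM pantetheine-AFC substrate. Buffer: 50 mM Tris-HCl pH 8.0, 50 mM KCl, 0.005% Brij-35, 1.5 mM cysteamine, 1% DMSO. 15 min at room temperature; fluorescence read at 405/505 nm across an 11-point 2-fold dilution series.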

The target in assay [3] is T1, human vanin-1. Kind of assay: Human Vanin-1 Enzyme Assay 1. The conditions noted are these: 25 pM human vanin-1, 50 uM pantetheine 7-amino-4-trifluoromethylcoumarin, 30 min preincubation, 60 min. A digest of the protocol:
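Purified His6/FLAG-tagged extracellular domain of human vanin-1, secreted from CHO cells, at 25 pM final in 50 mM Tris-HCl pH 8.0, 50 mM KCl, 0.005% Brij-35, 1.6 mM cysteamine, 0.5% DMSO. Inhibitor preincubated 30 min at room temperature; 50 uM pantetheine-AFC substrate, 60 min, fluorescence at 405/510 nm; 11-point four-fold dilution series.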

13 compounds from patent US10308615B2, “Heterocyclic compounds as inhibitors of Vanin-1 enzyme” (Pfizer Inc., priority 2015, dated 2019) can be followed below.

T1 sequence (O95497 22-491): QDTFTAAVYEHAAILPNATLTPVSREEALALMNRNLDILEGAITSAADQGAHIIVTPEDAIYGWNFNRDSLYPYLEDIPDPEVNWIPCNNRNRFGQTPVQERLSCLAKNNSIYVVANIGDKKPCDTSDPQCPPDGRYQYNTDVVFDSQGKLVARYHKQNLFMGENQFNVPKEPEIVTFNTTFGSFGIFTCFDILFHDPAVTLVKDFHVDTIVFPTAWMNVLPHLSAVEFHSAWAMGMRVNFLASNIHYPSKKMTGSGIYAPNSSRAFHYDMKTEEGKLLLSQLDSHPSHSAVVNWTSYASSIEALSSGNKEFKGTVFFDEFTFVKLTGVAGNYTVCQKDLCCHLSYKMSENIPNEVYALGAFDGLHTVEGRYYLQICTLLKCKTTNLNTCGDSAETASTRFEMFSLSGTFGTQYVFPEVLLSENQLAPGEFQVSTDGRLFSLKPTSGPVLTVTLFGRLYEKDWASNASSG

Usually IC50 stands for the concentration needed to halve the response being measured. Turning to `NC(=O)c1ccc(CNc2ncc(C(=O)c3cccc(C(F)(F)F)c3)cn2)cc1` [Example 33, 4-[({5-[3-(trifluoromethyl)benzoyl]pyrimidin-2-yl}amino)methyl] benzamide], the IC50 at human vanin-1 [1] stood at 55.9 nM; against human vanin-1 [2] it was 206 nM; on human vanin-1 [3], 7.3 nM.
As to `O=C(c1ccccc1)c1cnc(NCc2cccnc2)nc1` [Example 34, phenyl{2-[(pyridin-3-ylmethyl)amino]pyrimidin-5-yl}methanone], the half-inhibitory concentration (IC50) was determined as 108 nM at human vanin-1 [1], 69.3 nM against human vanin-1 [2] and 53.7 nM on human vanin-1 [3].
The like results for `Cc1cccc(C(=O)c2cnc(NCc3ccccn3)nc2)c1` [Example 38, (3-methylphenyl){2-[(pyridin-2-ylmethyl)amino]pyrimidin-5-yl}methanone] were, in that order, 868 nM, 735 nM and 857 nM.
The like results for `Cc1cccc(C(=O)c2cnc(NCc3ccccc3)nc2)c1` [Example 40, [2-(benzylamino)pyrimidin-5-yl](3-methylphenyl) methanone] were, in that order, 170 nM, 543 nM and 1740 nM.
With `COc1cccc(C(=O)c2cnc(NCc3ccccc3)nc2)c1` [Example 45, [2-(benzylamino)pyrimidin-5-yl](3-methoxyphenyl) methanone], the IC50 against human vanin-1 [1] came out at 188 nM; against human vanin-1 [2] it was 144 nM; at human vanin-1 [3], 794 nM.
With `NC(=O)c1cccc(CNc2ncc(C(=O)c3cccc(Cl)c3)cn2)c1` [Example 48, 3-({[5-(3-chlorobenzoyl)pyrimidin-2-yl]amino}methyl) benzamide], the figures for the half-maximal inhibitory concentration (IC50) at human vanin-1 [1], against human vanin-1 [2] and against human vanin-1 [3] were 357 nM, 398 nM and 218 nM, respectively.
On the same counts, the results for `O=C(O)c1ccc(CNc2ncc(C(=O)c3ccc(F)c(F)c3)cn2)cc1` [Example 49, 4-({[5-(3,4-difluorobenzoyl)pyrimidin-2-yl]amino}methyl) benzoic acid] are more than 7620 nM, 112 nM and 5690 nM.
On the same counts, the results for `COc1ccc(C(=O)c2cnc(NCc3ccc(C(N)=O)cc3)nc2)cc1` [Example 59, 4-({[5-(4-methoxybenzoyl)pyrimidin-2-yl]amino}methyl) benzamide] are 624 nM, 192 nM and 2280 nM.
On the same counts, the results for `N#Cc1cccc(C(=O)c2cnc(NC3(c4ccccc4)CC3)nc2)c1` [Example 65, 3-({2-[(1-phenylcyclopropyl)amino]pyrimidin-5-yl}carbonyl) benzonitrile] are 22.1 nM, 12 nM and 18.8 nM.
On to `O=C(c1cnc(NC2(c3ccccc3)CC2)nc1)c1cccc(C(F)(F)F)c1` [Example 66, {2-[(1-phenylcyclopropyl)amino]pyrimidin-5-yl}[3-(trifluoromethyl)phenyl]methanone], for which the IC50 on human vanin-1 [1] was 44.8 nM; against human vanin-1 [2], 10.6 nM; against human vanin-1 [3], 21.3 nM.
On the same counts, the results for `N#Cc1cccc(C(=O)c2cnc(NCc3ccc(C(N)=O)cc3)nc2)c1` [Example 68, 4-({[5-(3-cyanobenzoyl)pyrimidin-2-yl]amino}methyl) benzamide] are 73.1 nM, 78.8 nM and 107 nM.
On the same counts, the results for `Cc1ccc(CNc2ncc(C(=O)c3cccc(C(F)(F)F)c3)cn2)cn1` [Example 73, (2-{[(6-methylpyridin-3-yl)methyl]amino}pyrimidin-5-yl)[3-(trifluoromethyl)phenyl]methanone] are 10.6 nM, 1.2 nM and 1.7 nM.
The like results for `NC(=O)c1ccc(CNc2ncc(C(=O)c3ccc(F)c(C(F)(F)F)c3)cn2)cc1` [Example 87, 4-[({5-[4-fluoro-3-(trifluoromethyl)benzoyl]pyrimidin-2-yl}amino)methyl] benzamide] were, in that order, 45.2 nM, 25.9 nM and 67.1 nM.
